Test results taken from patent US7989649B2, “Tumor imaging compounds” (Emory University, priority 2002, dated 2011).

Tested on: 9 L gliosarcoma cells
Assay: Amino acid uptake inhibition assay in 9 L gliosarcoma cells
Assay type: cell-based, rat
Conditions: for uptake of activity blocked by BCH relative to controls: BCH 10 mM; for uptake of activity blocked by BCH relative to controls / uptake of activity blocked by N-MeAIB relative to controls: 30 minutes, 9 L gliosarcoma cells; for uptake of activity blocked by N-MeAIB relative to controls: N-MeAIB 10 mM; for intracellular accumulation in 9 L gliosarcoma cells: absence of inhibitors, 30 minutes of incubation; for substrate for A-type amino acid transport system: based on inhibition of uptake by N-MeAIB
Protocol: Amino acid uptake inhibition assays. The 9 L gliosarcoma cells were initially grown as monolayers in T-flasks containing Dulbecco's Modified Eagle's Medium (DMEM) under humidified incubator conditions (37° C., 5% CO2/95% air). The growth media was supplemented with 10% fetal calf serum and antibiotics (10,000 units/ml penicillin and 10 mg/ml streptomycin). The growth media was replaced three times per week, and the cells were passaged so the cells would reach confluency in a week's time.
When the monolayers were confluent, cells were prepared for experimentation in the following manner. Growth media was removed from the T-flask, and the monolayer cells were exposed to 1× trypsin:EDTA for ˜1 minute to weaken the protein attachments between the cells and the flask. The flask was then slapped, causing the cells to release. Supplemented media was added to inhibit the proteolytic action of the trypsin, and the cells were aspirated through an 18 Ga needle until they were monodisperse. A sample of the cells was counted under a microscope using a hemocytometer, and the live/dead fraction estimated through trypan blue staining (>98% viability). The remainder of the cells was placed into a centrifuge tube, centrifuged at 75 G for 5 minutes, and the supernatant was removed. The cells were then resuspended in amino-acid/serum-free DMEM salts.
In this study, approximately 4.55×10^5 cells were exposed to either [^18F]5a or [^18F]5b (5 μCi) in 3 ml of amino acid free media±transporter inhibitors (10 mM) for 30 minutes under incubator conditions in 12×75 mm glass vials. Each assay condition was performed in duplicate. After incubation, cells were twice centrifuged (75 G for 5 minutes) and rinsed with ice-cold amino-acid/serum-free DMEM salts to remove residual activity in the supernatant. The vials were placed in a Packard Cobra II Auto-Gamma counter, the raw counts decay corrected, and the activity per cell number determined. The data from these studies (expressed as percent uptake relative to control) were graphed using Excel, with statistical comparisons between the groups analyzed using a 1-way ANOVA (GraphPad Prism software package).

Row | SMILES | uptake of activity blocked by BCH relative to controls [%] | uptake of activity blocked by N-MeAIB relative to controls [%] | intracellular accumulation in 9 L gliosarcoma cells | substrate for A-type amino acid transport system | selectivity for A-type amino acid transport (compared with [18F]5a) | substrate for non-A transport system (based on inhibition of uptake by BCH)
1 | CNC(C)(CF)C(=O)O (racemic) [[^18F]5b, 3-fluoro-2-methyl-2-(methylamino)propanoic acid] | 33 | 88 | 0.50 % of the initial dose per million cells | substrates for the A-type amino acid transport system | more selective substrate for the A-type amino transport system than [^18F]5a | 
2 | CC(N)(CF)C(=O)O (racemic) [[^18F]5a, 2-amino-3-fluoro-2-methylpropanoic acid] | 48 | 80 | 0.43 % of the initial dose per million cells | substrates for the A-type amino acid transport system |  | substrate in vitro for at least one non-A transport system, possibly system L
